From PubChem BioAssay (NCI)
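These data come from cells grown in 96-well plates and exposed to compound for 48 hours at five concentrations. Here, GI50 denotes the concentration required for 50% inhibition of growth. TGI: total growth inhibition.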

What was measured:
Assay in all cases: DTP human tumour cell line panel, 48 h
[1] = system: A498 renal
[2] = system: PC-3 prostate
[3] = system: TK-10 renal
[4] = system: SK-MEL-28 melanoma
[5] = system: SF-539 CNS
[6] = system: MOLT-4 leukemia
[7] = system: SN12C renal
[8] = system: UACC-62 melanoma
[9] = system: HT29 colon
[10] = system: CAKI-1 renal

SMILES	GI50 [1]	TGI [1]	GI50 [2]	TGI [2]	GI50 [3]	TGI [3]	GI50 [4]	TGI [4]	GI50 [5]	TGI [5]	GI50 [6]	TGI [6]	GI50 [7]	TGI [7]	GI50 [8]	TGI [8]	GI50 [9]	TGI [9]	GI50 [10]	TGI [10]
Clc1ccc2c(NCCCCNc3nc(N4CCCCC4)nc4ccccc34)ccnc2c1	1.78 µM	4.62 µM	3.33 µM	14.6 µM	1.68 µM	3.5 µM	1.89 µM	3.82 µM	1.49 µM	2.97 µM	1.98 µM	5.62 µM	2.78 µM	12.7 µM	1.79 µM	3.48 µM	1.63 µM	4.86 µM	–	–
Cc1ccc(NC2=C(Cl)C(=O)N(Cc3ccccc3)C2=O)cc1O	7.18 µM	33.1 µM	32.5 µM	> 100 µM	31.3 µM	> 100 µM	52.8 µM	> 100 µM	25 µM	76 µM	24.3 µM	> 100 µM	25.6 µM	93.8 µM	24.4 µM	> 100 µM	–	–	28.1 µM	> 100 µM
O=C(/C=C/C12c3ccccc3C(c3ccccc31)C1C(=O)NC(=O)C12)c1ccncc1 (configuration not stated)	14.1 µM	28.3 µM	1.97 µM	5.4 µM	2.61 µM	7.75 µM	2.1 µM	4.57 µM	2.03 µM	5.72 µM	2.57 µM	9.17 µM	2.55 µM	12 µM	1.87 µM	3.88 µM	1.96 µM	4.35 µM	2.58 µM	11.7 µM
O=CN/C=C/c1cc(O)ccc1O	–	> 100 µM	–	> 100 µM	–	31.6 µM	–	> 78.5 µM	–	43.9 µM	–	> 63.4 µM	–	31.3 µM	–	27.3 µM	–	56.5 µM	–	25.8 µM
OCc1ccc(N2CCC2c2ccc(F)cc2)cc1Cl (configuration not stated)	0.0584 µM	0.244 µM	21 µM	67.1 µM	0.225 µM	1.61 µM	28.7 µM	> 100 µM	33.5 µM	> 71 µM	25 µM	64.6 µM	18.2 µM	> 63.8 µM	0.397 µM	6.95 µM	5.13 µM	33 µM	12.9 µM	> 57.1 µM
COc1ccc2c(c1)/C(=C/c1c(C)nc3sc(C)nn13)C(=O)N2	3.07 µM	> 50 µM	2.48 µM	> 100 µM	7.43 µM	> 100 µM	5.29 µM	> 100 µM	3.29 µM	> 50.7 µM	2.64 µM	> 100 µM	7.2 µM	> 100 µM	6.24 µM	> 100 µM	0.451 µM	> 100 µM	2.31 µM	> 100 µM
CO[C@H](C(=O)[C@@H](O)[C@@H](C)O)[C@@H]1Cc2cc3cc(O[C@H]4C[C@@H](O[C@H]5C[C@@H](O)[C@H](O)C(C)O5)[C@H](O)C(C)O4)c(C)c(O)c3c(O)c2C(=O)[C@H]1O[C@H]1C[C@@H](O[C@H]2C[C@@H](O[C@H]3C[C@](C)(O)C(=O)C(C)O3)[C@@H](O)C(C)O2)[C@H](O)C(C)O1 (some centres not stated)	0.0185 µM	0.147 µM	0.151 µM	32.2 µM	0.21 µM	> 11.8 µM	0.053 µM	0.203 µM	0.0473 µM	0.224 µM	0.193 µM	> 19.1 µM	0.093 µM	> 33.2 µM	0.0187 µM	0.102 µM	0.0852 µM	0.866 µM	0.924 µM	> 33.2 µM
Cc1nc2ccccc2c(N)c1-c1cc(C)c2c(C)nc3ccccc3c2n1	1.73 µM	4.11 µM	1.02 µM	3.1 µM	1.44 µM	2.78 µM	1.61 µM	2.97 µM	1.31 µM	2.59 µM	0.54 µM	–	1.41 µM	2.9 µM	1.29 µM	2.61 µM	0.749 µM	2.52 µM	1.55 µM	2.94 µM
NC(=O)c1cccc2cn(-c3ccc([C@@H]4CCCNC4)cc3)nc12	19.2 µM	40.8 µM	16.1 µM	> 100 µM	24.1 µM	63.2 µM	16.3 µM	30.7 µM	6.72 µM	20.4 µM	6.99 µM	30.1 µM	9.15 µM	56.8 µM	13.6 µM	27 µM	12.9 µM	32 µM	5.77 µM	20.2 µM
Cc1cc(I)cc(CN(C)CCCCN2CCCCC2)c1O	11.4 µM	25.4 µM	15 µM	32 µM	15.4 µM	31.1 µM	4.21 µM	15.8 µM	12 µM	25.1 µM	7.08 µM	21.8 µM	35.5 µM	> 100 µM	2.62 µM	6.98 µM	3.21 µM	14.2 µM	13.6 µM	29.5 µM
COC1=CC(c2ccc[nH]2)=N/C1=C\c1[nH]c(C)c(C(=O)OC(C)C)c1C	0.255 µM	1.92 µM	0.0633 µM	4.7 µM	0.0541 µM	2.49 µM	0.216 µM	1.95 µM	0.069 µM	1.53 µM	0.0346 µM	3.51 µM	0.068 µM	2.01 µM	0.025 µM	0.0578 µM	0.0236 µM	0.439 µM	0.0158 µM	0.236 µM
Cc1coc2c1CC1(C)C(CCC(O)C1C)C2 (configuration not stated)	–	> 100 µM	–	> 100 µM	–	> 100 µM	–	–	–	> 100 µM	–	> 100 µM	–	> 100 µM	–	> 100 µM	–	> 100 µM	–	> 100 µM
CCCCCN(CCCCC)CCCNc1c2c(nc3ccc(Cl)cc13)CCCC2	1.72 µM	8.94 µM	2.46 µM	8.9 µM	2.4 µM	7.24 µM	3.74 µM	13.8 µM	3.6 µM	13.2 µM	–	–	2.92 µM	12.8 µM	4.36 µM	16.8 µM	0.501 µM	7.01 µM	2.18 µM	6.83 µM
